Results: patent US7745375B2, “Synergistic insecticide mixtures” (Bayer CropScience AG, priority 2003, dated 2010)

Tests used:
Type in all cases: in vivo
Myzus persicae [1] = experiment: Example M Myzus persicae test (cabbage leaves dipped); conditions: single active compound, 0.16 ppm
Procedure: (§1) To prepare a suitable active compound preparation, 1 part by weight of active compound is mixed with the stated amounts of solvent and emulsifier, and the concentrate is diluted with emulsifier-comprising water to the desired concentration.
(§2) Cabbage leaves (Brassica oleracea) which are severely infested with green peach aphids (Myzus persicae) are treated by being dipped into the active compound preparation of the desired concentration.
(§3) After the desired period of time, the destruction is determined in %. In this context, 100% means that all of the aphids were destroyed; 0% means that no aphids were destroyed.

Bemisia tabaci [2] = experiment: Example B Bemisia tabaci test (cotton plants sprayed); conditions: single active compound, 0.8 ppm
Procedure: as §1
(§4) Cotton plants (Gossypium hirsutum) which are infested with whitefly (Bemisia tabaci) eggs, larvae and puparia are sprayed with the active compound preparation of the desired concentration.
(§5) After the desired period of time, the destruction is determined in %. In this context, 100% means that all of the whiteflies were destroyed; 0% means that no whiteflies were destroyed.

Aphis gossypii = experiment: Example A Aphis gossypii test (cotton leaves dipped); conditions: single active compound, 0.8 ppm
Procedure: as §1
Cotton leaves (Gossypium hirsutum) which are severely infested with cotton aphids (Aphis gossypii) are treated by being dipped into the active compound preparation of the desired concentration.
as §3

Bemisia tabaci [3] = experiment: Example K Bemisia tabaci test (cotton plants sprayed); conditions: single active compound, 0.16 ppm
Procedure: as §1, §4, §5

Heliothis armigera [4] = experiment: Example L Heliothis armigera test (soya bean shoots dipped); conditions: single active compound, 4 ppm
Procedure: as §1
Soya bean shoots (Glycine max) are treated by being dipped into the active compound preparation of the desired concentration and populated with Heliothis armigera caterpillars while the leaves are still moist.
(§6) After the desired period of time, the destruction is determined in %. In this context, 100% means that all of the caterpillars were destroyed; 0% means that no caterpillars were destroyed.

Spodoptera exigua [5] = experiment: Example N Spodoptera exigua test (cabbage leaves dipped); conditions: single active compound, 20 ppm
Procedure: as §1
(§7) Cabbage leaves (Brassica oleracea) are treated by being dipped into the active compound preparation of the desired concentration and populated with army worm caterpillars (Spodoptera exigua) while the leaves are still moist.
as §6

[6] = system: Plutella xylostella (normal strain); experiment: Example E Plutella xylostella test (normal strain); conditions: single active compound, 20 ppm
Procedure: as §1
Cabbage leaves (Brassica oleracea) are treated by being dipped into the active compound preparation of the desired concentration and populated with diamondback moth caterpillars (Plutella xylostella/sensitive strain) while the leaves are still moist.
as §6

Myzus persicae [7] = experiment: Example D Myzus persicae test (cabbage leaves dipped); conditions: single active compound, 0.8 ppm
Procedure: as §1, §2, §3

Heliothis armigera [8] = experiment: Example C Heliothis armigera test (soya bean shoots dipped); conditions: single active compound, 4 ppm
Procedure: as §1
Soya bean shoots (Glycine max) are treated by being dipped into the active compound preparation of the desired concentration and populated with Heliothis armigera caterpillars while the leaves are still damp.
as §6

Spodoptera frugiperda = experiment: Example J Spodoptera frugiperda test (cabbage leaves dipped); conditions: single active compound, 0.8 ppm
Procedure: as §1
Cabbage leaves (Brassica oleracea) are treated by being dipped into the active compound preparation of the desired concentration and populated with army worm caterpillars (Spodoptera frugiperda) while the leaves are still moist.
as §6

Spodoptera exigua [9] = experiment: Example I Spodoptera exigua test (cabbage leaves dipped); conditions: single active compound, 100 ppm
Procedure: as §1, §7, §6

Myzus persicae [10] = experiment: Example G Myzus test (cabbage leaves dipped); conditions: single active compound, 0.16 ppm
Procedure: as §1, §2, §3

Heliothis armigera [11] = experiment: Example F Heliothis armigera test (soya bean shoots dipped); conditions: single active compound
Procedure: as §1
Soya bean shoots (glycine max) are treated by being dipped into the active compound preparation of the desired concentration and populated with Heliothis armigera caterpillars while the leaves are still moist.
as §6

[12] = system: Plutella xylostella/normal strain; experiment: Example H Plutella test (normal strain); conditions: single active compound
Procedure: as §1
Cabbage leaves (Brassica oleracea) are treated by being dipped into the active compound preparation of the desired concentration and populated with diamondback moth caterpillars (Plutella xylostella/normal strain) while the leaves are still moist.
as §6

SMILES	Destruction in % after 6 d (Myzus persicae [1])	Destruction in % after 12 d (Bemisia tabaci [2])	Destruction in % after 6 d (Aphis gossypii)	Destruction in % after 10 d (Bemisia tabaci [3])	Destruction in % after 6 d (Heliothis armigera [4])	Destruction in % after 6 d (Spodoptera exigua [5])	Destruction in % after 6 d [6]	Destruction in % after 6 d (Myzus persicae [7])	Destruction in % after 6 d (Heliothis armigera [8])	Destruction in % after 7 d (Spodoptera frugiperda)	Destruction in % after 7 d (Spodoptera exigua [9])	Destruction in % after 6 d (Myzus persicae [10])	Destruction in % after 7 d (Heliothis armigera [11]; 4 ppm)	Destruction in % after 7 d ([12]; 20 ppm)	Destruction in % after 7 d (Heliothis armigera [11]; 0.8 ppm)	Destruction in % after 7 d ([12]; 4 ppm)
CN/C(=N\[N+](=O)[O-])NCc1cnc(Cl)s1 [Clothianidin, clothianidin]	0%	35%	0%	5%	0%	10%	60%	65%	45%	–	–	–	–	–	–	–
O=[N+]([O-])/N=C1\NCCN1Cc1ccc(Cl)nc1 [Imidacloprid, imidacloprid]	50%	–	–	5%	10%	10%	–	–	–	20%	45%	10%	10%	15%	–	–
N#C/N=C1\SCCN1Cc1ccc(Cl)nc1 [Thiacloprid, thiacloprid]	–	80%	25%	–	–	–	15%	20%	35%	10%	0%	10%	–	–	0%	0%
